IC50 data for 42 compounds are collected here from patent publication US12540141B2, “Spiropyrrolidine derived antiviral agents” (priority 2020, dated 2026).

pIC50: −log10 of the molar value. Some results are limits rather than exact numbers.

The target in this assay is SARS-CoV-2 3CL-protease (Severe acute respiratory syndrome coronavirus 2, UniProt P0DTD1). Kind of assay: SARS-CoV-2 3C-Like (3CL) Protease Fluorescence Assay (FRET). It is filed as biochemical. The settings on record: SARS-CoV-2 3CL-protease 10 nM, 30 min preincubation at RT, substrate 40 μM.

For `CC(C)C[C@@H](C(=O)N1C[C@]2(C[C@H]1C#N)C(=O)Nc1ccccc12)N(C)C(=O)c1cccc(OC(F)F)c1` [Example 188], the pIC50 (in general, −log10 of the IC50, conventionally taken in molar units) is greater than 7.00.

For `CC(C)C[C@@H](C(=O)N1C[C@]2(C[C@H]1C#N)C(=O)Nc1ccccc12)N(C)C(=O)c1cccc(OC(F)(F)F)c1` [Example 189], the pIC50 is 6.00 to 7.00.

`CC(C)C[C@@H](C(=O)N1C[C@]2(C[C@H]1C#N)C(=O)Nc1ccccc12)N(C)C(=O)c1ccc2c(c1)OC(F)(F)O2` [Example 190] showed a pIC50 of 6.00 to 7.00.

`COc1ccnc(C(=O)N(C)[C@@H](CC(C)C)C(=O)N2C[C@]3(C[C@H]2C#N)C(=O)Nc2ccccc23)c1` [Example 192] gave a pIC50 of 6.00 to 7.00.

Regarding `COc1ccc(C(=O)N(C)[C@@H](CC(C)C)C(=O)N2C[C@]3(C[C@H]2C#N)C(=O)Nc2ccccc23)nc1` [Example 193], the pIC50 was 6.00 to 7.00.

`CC(C)C[C@@H](C(=O)N1C[C@]2(C[C@H]1C#N)C(=O)Nc1ccccc12)N(C)C(=O)c1ccncc1` [Example 194] gave a pIC50 of 6.00 to 7.00.

The compound `CC(C)C[C@@H](C(=O)N1C[C@]2(C[C@H]1C#N)C(=O)Nc1ccccc12)N(C)C(=O)c1cncc(C(F)(F)F)c1` [Example 195] gave a pIC50 greater than 7.00.

Compound `CC(C)C[C@@H](C(=O)N1C[C@]2(C[C@H]1C#N)C(=O)Nc1ccccc12)N(C)C(=O)c1cncc(F)c1` [Example 196] had a negative logarithm of the IC50 (pIC50) greater than 7.00.

On to `CC(C)C[C@@H](C(=O)N1C[C@]2(C[C@H]1C#N)C(=O)Nc1ccccc12)N(C)C(=O)c1cc(F)ccn1` [Example 197], for which the pIC50 was 6.00 to 7.00.

Take `CC(C)C[C@@H](C(=O)N1C[C@]2(C[C@H]1C#N)C(=O)Nc1ccccc12)N(C)C(=O)c1ccc(F)cn1` [Example 198]: the pIC50 is 6.00 to 7.00.

Regarding `CC(C)C[C@@H](C(=O)N1C[C@]2(C[C@H]1C#N)C(=O)Nc1ccccc12)N(C)C(=O)c1cccc(N)n1` [Example 199], the pIC50 was 6.00 to 7.00.

In the case of `CC(C)C[C@@H](C(=O)N1C[C@]2(C[C@H]1C#N)C(=O)Nc1ccccc12)N(C)C(=O)c1cnccn1` [Example 200], the pIC50 was greater than 7.00.

For the compound `CC(C)C[C@@H](C(=O)N1C[C@]2(C[C@H]1C#N)C(=O)Nc1ccccc12)N(C)C(=O)c1cn(C)cn1` [Example 201], the pIC50 is 6.00 to 7.00.

`CC(C)C[C@@H](C(=O)N1C[C@]2(C[C@H]1C#N)C(=O)Nc1ccccc12)N(C)C(=O)c1ccn[nH]1` [Example 202]: the pIC50 was 6.00 to 7.00.

Compound `CC(C)C[C@@H](C(=O)N1C[C@]2(C[C@H]1C#N)C(=O)Nc1ccccc12)N(C)C(=O)c1ccnn1C` [Example 203] gave a pIC50 greater than 7.00.

`CC(C)C[C@@H](C(=O)N1C[C@]2(C[C@H]1C#N)C(=O)Nc1ccccc12)N(C)C(=O)c1ccn(C)n1` [Example 204]: the pIC50 was 6.00 to 7.00.

Compound `CC(C)C[C@@H](C(=O)N1C[C@]2(C[C@H]1C#N)C(=O)Nc1ccccc12)N(C)C(=O)c1nc2ccccc2[nH]1` [Example 205] gave a pIC50 greater than 7.00.

Compound `CC(C)C[C@@H](C(=O)N1C[C@]2(C[C@H]1C#N)C(=O)Nc1ccccc12)N(C)C(=O)c1nc2ccccc2s1` [Example 206] showed a pIC50 of 6.00 to 7.00.

Compound `CC(C)C[C@@H](C(=O)N1C[C@]2(C[C@H]1C#N)C(=O)Nc1ccccc12)N(C)C(=O)c1cc2ccccc2s1` [Example 207] had a negative-log IC50 (pIC50) greater than 7.00.

In turn, `CC(C)C[C@@H](C(=O)N1C[C@]2(C[C@H]1C#N)C(=O)Nc1ccccc12)N(C)C(=O)c1cc2ccccc2o1` [Example 208] had a pIC50 greater than 7.00.

In turn, `CC(C)C[C@@H](C(=O)N1C[C@]2(C[C@H]1C#N)C(=O)Nc1ccccc12)N(C)C(=O)c1cc2sccc2[nH]1` [Example 209] gave a pIC50 greater than 7.00.

With `CC(C)C[C@@H](C(=O)N1C[C@]2(C[C@H]1C#N)C(=O)Nc1ccccc12)N(C)C(=O)c1ccc2ncccc2c1` [Example 210], the pIC50 was greater than 7.00.

In turn, `CC(C)C[C@@H](C(=O)N1C[C@]2(C[C@H]1C#N)C(=O)Nc1ccccc12)N(C)C(=O)c1ccc2ccccc2n1` [Example 211] showed a pIC50 of 6.00 to 7.00.

In turn, `CC(C)C[C@@H](C(=O)N1C[C@]2(C[C@H]1C#N)C(=O)Nc1ccccc12)N(C)C(=O)c1cc2ccccc2cn1` [Example 212] showed a pIC50 greater than 7.00.

In the case of `CC(C)C[C@@H](C(=O)N1C[C@]2(C[C@H]1C#N)C(=O)Nc1ccccc12)N(C)C(=O)c1cnc2ccccc2c1` [Example 213], the pIC50 is greater than 7.00.

Turning to `CC(C)C[C@@H](C(=O)N1C[C@]2(C[C@H]1C#N)C(=O)Nc1ccccc12)N(C)C(=O)c1cccc2ncccc12` [Example 214], the pIC50 was greater than 7.00.

`CC(C)C[C@@H](C(=O)N1C[C@]2(C[C@H]1C#N)C(=O)Nc1ccccc12)N(C)C(=O)c1cccc2cnccc12` [Example 215]: the pIC50 was greater than 7.00.

Compound `CC(C)C[C@@H](C(=O)N1C[C@]2(C[C@H]1C#N)C(=O)Nc1ccccc12)N(C)C(=O)c1ccc2cnccc2c1` [Example 216] showed a pIC50 greater than 7.00.

Regarding `CC(C)C[C@@H](C(=O)N1C[C@]2(C[C@H]1C#N)C(=O)Nc1ccccc12)N(C)C(=O)c1ccc2ccncc2c1` [Example 217], the pIC50 is 6.00 to 7.00.

`CC(C)C[C@@H](C(=O)N1C[C@]2(C[C@H]1C#N)C(=O)Nc1ccccc12)N(C)C(=O)c1ccc2cccnc2c1` [Example 218] showed a pIC50 of 6.00 to 7.00.

Consider `CC(C)C[C@@H](C(=O)N1C[C@]2(C[C@H]1C#N)C(=O)Nc1ccccc12)N(C)C(=O)c1ccc2ccccc2c1` [Example 219], for which the pIC50 was 6.00 to 7.00.

For `CC(C)C[C@@H](C(=O)N1C[C@]2(C[C@H]1C#N)C(=O)Nc1ccccc12)N(C)C(=O)c1ccc(F)c2ccccc12` [Example 221], the negative logarithm of the IC50 (pIC50) was greater than 7.00.

`CC(C)C[C@@H](C(=O)N1C[C@]2(C[C@H]1C#N)C(=O)Nc1ccccc12)N(C)C(=O)c1ccc2cc(F)ccc2c1` [Example 222] gave a pIC50 of 6.00 to 7.00.

`CC(C)C[C@@H](C(=O)N1C[C@]2(C[C@H]1C#N)C(=O)Nc1ccccc12)N(C)C(=O)c1ccc2cn[nH]c2c1` [Example 223] had a pIC50 of 6.00 to 7.00.

In turn, `CC(C)C[C@@H](C(=O)N1C[C@]2(C[C@H]1C#N)C(=O)Nc1ccccc12)N(C)C(=O)c1ccc2cnn(C)c2c1` [Example 224] had a pIC50 greater than 7.00.

With `CC(C)C[C@@H](C(=O)N1C[C@]2(C[C@H]1C#N)C(=O)Nc1ccccc12)N(C)C(=O)c1ccc2nc(N)sc2c1` [Example 225], the pIC50 is less than 6.00.

On to `CC(C)C[C@@H](C(=O)N1C[C@]2(C[C@H]1C#N)C(=O)Nc1ccccc12)N(C)C(=O)Cc1ccccc1` [Example 226], for which the pIC50 was greater than 7.00.

In the case of `CC(C)C[C@@H](C(=O)N1C[C@]2(C[C@H]1C#N)C(=O)Nc1ccccc12)N(C)C(=O)CCc1ccccc1` [Example 227], the pIC50 is greater than 7.00.

Regarding `CC(C)C[C@@H](C(=O)N1C[C@]2(C[C@H]1C#N)C(=O)Nc1ccccc12)N(C)C(=O)/C=C/c1ccccc1` [Example 228], the pIC50 is greater than 7.00.

In turn, `CC(C)C[C@@H](C(=O)N1C[C@]2(C[C@H]1C#N)C(=O)Nc1ccccc12)N(C)C(=O)COc1ccccc1` [Example 229] gave a pIC50 greater than 7.00.

For `CC(C)C[C@@H](C(=O)N1C[C@]2(C[C@H]1C#N)C(=O)Nc1ccccc12)N(C)C(=O)c1ccc2c(Br)cccc2n1` [Example 231], the pIC50 was 6.00 to 7.00.

The compound `Cc1ccc2cc(C(=O)N(C)[C@@H](CC(C)C)C(=O)N3C[C@]4(C[C@H]3C#N)C(=O)Nc3ccccc34)ccc2n1` [Example 234] had a pIC50 greater than 7.00.
